Results taken from patent US20220315554A1, “COMPOUNDS COMPRISING A […] LIGAND AND USE THEREOF” (priority 2019, published 2022).
Numbered stars: 1 amine (or outer) side, 2 acyl side, 3 side chain; on linkers, the order of the positions; unused ones are H or OH. Bridge positions count the residues as written; N and C are the ends. Square brackets hold non-standard residues; d marks the D form. Peptide text beside a SMILES is read from it. * marks the point of attachment. ξ: configuration not given here. TBMB(SCH2CH2NH-DOTA) = O=C(O)CN1CCN(CC(=O)O)CCN(CC(=O)NCCSCc2cc(C[*:1])cc(C[*:2])c2)CCN(CC(=O)O)CC1; X3 = NC(=O)[C@H](CCCCNC(=O)CN1CCN(CC(=O)O)CCN(CC(=O)O)CCN(CC(=O)O)CC1)NC(=O)CCC(=O)NCCCOCCOCCOCCCN*; X6 = NC(=O)[C@H](CCCCNC(=O)CCCC[C@@H]1SC[C@@H]2NC(=O)N[C@@H]21)NC(=O)CCC(=O)NCCCOCCOCCOCCCN*; X2 = O=C(O)CN1CCN(CC(=O)O)CCN(CC(=O)NCCCOCCOCCOCCCN*)CCN(CC(=O)O)CC1; mXylylene = c1cc(C[*:1])cc(C[*:2])c1; NMeF = CN[C@@H](Cc1ccccc1)C(=O)O; Suc = O=C(CCC(=O)[*:2])[*:1]; 4Amb = NCc1ccc(C(=O)O)cc1; Nle = CCCC[C@H](N)C(=O)O; Hexanoyl = CCCCCC(=O)*; ξD = NC(CC(=O)O)C(=O)O

Assays:
[1] = Plasma stability assay, mouse plasma; format: in vitro ADME; details: 37° C., read-out: % intact compound remaining after incubation, Mouse plasma; for remaining at 4 h, 9.8 µM: 4 h incubation
Recombinant human DPP4 = molecular target: T1, Recombinant human DPP4 (Homo sapiens, UniProt P27487); experiment: DPP4 protease activity assay; format: biochemical
T1 construct: purchased R&D systems 9168-SE

recombinant human PREP = molecular target: T2, recombinant human PREP (Homo sapiens, UniProt P48147); experiment: PREP protease activity assay; format: biochemical
T2 construct: purchased R&D systems 4308-SE
T2 sequence (P48147 1-710): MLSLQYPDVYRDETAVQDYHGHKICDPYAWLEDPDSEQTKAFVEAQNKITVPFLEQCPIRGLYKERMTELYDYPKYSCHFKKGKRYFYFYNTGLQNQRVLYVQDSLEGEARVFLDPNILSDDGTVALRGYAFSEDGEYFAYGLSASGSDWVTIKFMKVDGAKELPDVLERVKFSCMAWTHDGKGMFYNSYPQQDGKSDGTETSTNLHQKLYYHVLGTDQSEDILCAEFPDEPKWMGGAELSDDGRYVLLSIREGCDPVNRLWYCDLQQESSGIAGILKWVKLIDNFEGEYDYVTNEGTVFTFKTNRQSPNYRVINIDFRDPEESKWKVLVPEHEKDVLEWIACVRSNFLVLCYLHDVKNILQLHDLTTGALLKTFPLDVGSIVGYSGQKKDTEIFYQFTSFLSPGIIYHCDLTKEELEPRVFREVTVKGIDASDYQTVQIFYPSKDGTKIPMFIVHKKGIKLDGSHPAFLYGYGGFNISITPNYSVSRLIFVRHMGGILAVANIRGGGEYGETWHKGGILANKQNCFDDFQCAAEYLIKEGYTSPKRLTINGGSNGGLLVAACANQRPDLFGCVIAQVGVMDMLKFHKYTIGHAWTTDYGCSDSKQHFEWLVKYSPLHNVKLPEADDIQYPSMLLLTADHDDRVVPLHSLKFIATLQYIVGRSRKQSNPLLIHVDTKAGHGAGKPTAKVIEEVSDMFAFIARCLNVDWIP

Human recombinant FAP [2] = molecular target: T3, Human recombinant FAP (Homo sapiens, UniProt Q12884); experiment: Surface plasmon resonance (Biacore) assay; format: binding
T3 sequence (Q12884 1-760): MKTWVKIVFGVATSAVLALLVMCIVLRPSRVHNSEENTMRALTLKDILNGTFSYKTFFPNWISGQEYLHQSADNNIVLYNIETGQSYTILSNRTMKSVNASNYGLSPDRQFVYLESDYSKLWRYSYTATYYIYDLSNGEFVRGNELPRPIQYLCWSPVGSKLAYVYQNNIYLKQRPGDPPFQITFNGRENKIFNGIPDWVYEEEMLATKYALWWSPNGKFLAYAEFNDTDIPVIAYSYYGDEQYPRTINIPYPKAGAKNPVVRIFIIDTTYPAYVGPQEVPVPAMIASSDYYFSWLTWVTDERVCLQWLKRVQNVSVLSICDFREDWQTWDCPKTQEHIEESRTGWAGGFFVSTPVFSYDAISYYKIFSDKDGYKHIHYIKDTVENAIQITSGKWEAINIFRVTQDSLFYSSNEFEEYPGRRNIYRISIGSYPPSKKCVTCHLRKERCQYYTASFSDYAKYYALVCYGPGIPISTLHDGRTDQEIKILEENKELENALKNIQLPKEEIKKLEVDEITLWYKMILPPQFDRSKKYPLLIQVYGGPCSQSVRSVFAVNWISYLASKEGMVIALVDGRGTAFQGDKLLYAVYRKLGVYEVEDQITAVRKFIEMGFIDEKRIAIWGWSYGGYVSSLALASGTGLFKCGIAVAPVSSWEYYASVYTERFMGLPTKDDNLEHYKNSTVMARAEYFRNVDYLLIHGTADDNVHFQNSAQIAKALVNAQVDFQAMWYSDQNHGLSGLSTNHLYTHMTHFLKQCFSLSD

[3] = molecular target: T4, FAP-expressing human WI-38 fibroblasts (Homo sapiens, UniProt Q12884); experiment: Competitive FACS binding assay; details: pIC50 Category (FACS), competition with 3 nM Cy5-labeled compound, WI-38 fibroblasts, 4° C., 1 hour
T4 construct: FAP-expressing human WI-38 fibroblasts (ECACC) were cultured in EMEM; host or cells: WI-38 human fibroblasts
T4 sequence (Q12884 1-760): T3 sequence (Q12884 1-760)
Method: Cells were analyzed in an Attune NxT flow cytometer. […]

Human recombinant FAP [4] = molecular target: T3, Human recombinant FAP; experiment: FRET-based FAP protease activity assay; format: biochemical; set-up: purchased R&D systems 3715-SE; details: pIC50 Category (Activity), recombinant human FAP, FRET substrate, 37° C.

T1 sequence (P27487 whole entry): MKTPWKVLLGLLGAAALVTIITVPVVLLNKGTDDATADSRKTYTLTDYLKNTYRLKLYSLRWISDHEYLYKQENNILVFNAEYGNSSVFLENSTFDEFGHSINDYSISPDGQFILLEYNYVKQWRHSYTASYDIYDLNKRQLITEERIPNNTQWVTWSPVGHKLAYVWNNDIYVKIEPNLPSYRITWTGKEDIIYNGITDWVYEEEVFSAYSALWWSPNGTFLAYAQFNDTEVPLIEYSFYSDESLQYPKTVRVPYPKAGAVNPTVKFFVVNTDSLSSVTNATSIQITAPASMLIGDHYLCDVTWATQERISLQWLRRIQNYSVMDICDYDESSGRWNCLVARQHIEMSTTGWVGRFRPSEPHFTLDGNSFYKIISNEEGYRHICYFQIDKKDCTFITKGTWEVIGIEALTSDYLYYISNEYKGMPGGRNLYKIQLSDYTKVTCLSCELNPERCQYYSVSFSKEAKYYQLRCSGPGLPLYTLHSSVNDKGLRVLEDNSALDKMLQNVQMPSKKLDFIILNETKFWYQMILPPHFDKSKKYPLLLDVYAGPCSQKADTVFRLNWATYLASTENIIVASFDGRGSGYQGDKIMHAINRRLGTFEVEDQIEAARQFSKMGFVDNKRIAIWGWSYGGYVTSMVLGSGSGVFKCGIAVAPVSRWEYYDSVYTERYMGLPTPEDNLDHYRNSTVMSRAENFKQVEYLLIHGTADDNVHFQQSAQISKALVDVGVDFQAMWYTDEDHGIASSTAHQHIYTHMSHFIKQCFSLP

Row | SMILES | remaining at 4 h, 9.8 µM [1] | IC50 (Recombinant human DPP4) | IC50 (recombinant human PREP) | Kd (Human recombinant FAP [2]) | IC50 [3] | IC50 (Human recombinant FAP [4]) | remaining at 24 h, 9.8 µM ([1]; 24 h incubation)
1 | CCCC[C@H](NC(=O)CCC(=O)NCCCOCCOCCOCCCNC(=O)CN1CCN(CC(=O)O)CCN(CC(=O)O)CCN(CC(=O)O)CC1)C(=O)N[C@H]1CSCc2cccc(c2)CSC[C@@H](C(=O)N[C@@H](CC(=O)O)C(=O)NCc2ccc(C(=O)N[C@@H](CCCNC(=N)N)C(N)=O)cc2)NC(=O)[C@H](Cc2ccccc2)NC(=O)[C@H](CCC(=O)O)NC(=O)[C@H]([C@@H](C)O)NC(=O)[C@@H]2CCCN2C(=O)[C@@H]2CCCN2C1=O [3BP-3321, DOTA-Ttds-Nle-[Cys(3MeBn)-Pro-Pro-Thr-Glu-Phe-Cys]-Asp-Pamb-Arg-NH2] ({X2-Suc}-[Nle]CPPTEFCD[4Amb]R-NH2; linker 2-8 via mXylylene) | 94% | > 1000 nM | > 1000 nM | < 10 nM | < 10 nM | < 10 nM | 
2 | CCCCCC(=O)N[C@H]1CSCc2cccc(c2)CSC[C@@H](C(=O)N[C@@H](CC(=O)O)C(=O)N[C@@H](Cc2c[nH]cn2)C(=O)N[C@@H](Cc2ccccc2)C(=O)N[C@@H](CCCNC(=N)N)C(=O)N[C@@H](CC(=O)O)C(=O)NCCCOCCOCCOCCCNC(=O)CCC(=O)N[C@@H](CCCCNC(=O)CN2CCN(CC(=O)O)CCN(CC(=O)O)CCN(CC(=O)O)CC2)C(N)=O)NC(=O)[C@H](Cc2ccccc2)NC(=O)[C@H](CCC(=O)O)NC(=O)[C@H]([C@@H](C)O)NC(=O)[C@@H]2CCCN2C(=O)[C@@H]2CCCN2C1=O [3BP-3105, Hex-[Cys(3MeBn)-Pro-Pro-Thr-Glu-Phe-Cys]-Asp-His-Phe-Arg-Asp-Ttds-Lys(DOTA)-NH2] (Hexanoyl-CPPTEFCDHFRD-X3; linker 1-7 via mXylylene) | 55% | > 1000 nM | > 1000 nM | < 10 nM | < 10 nM | < 10 nM | 
3 | CSCC[C@H](N)C(=O)N[C@H]1CSCc2cccc(c2)CSC[C@@H](C(=O)N[C@@H](CC(=O)O)C(=O)N[C@@H](Cc2c[nH]cn2)C(=O)N[C@@H](Cc2ccccc2)C(=O)N[C@@H](CCCNC(=N)N)C(=O)N[C@@H](CC(=O)O)C(=O)NCCCOCCOCCOCCCNC(=O)CCC(=O)N[C@@H](CCCCNC(=O)CCCC[C@@H]2SC[C@@H]3NC(=O)N[C@@H]32)C(N)=O)NC(=O)[C@H](Cc2ccccc2)NC(=O)[C@H](CCC(=O)O)NC(=O)[C@H]([C@@H](C)O)NC(=O)[C@@H]2CCCN2C(=O)[C@@H]2CCCN2C1=O [3BP-2881, H-Met-[Cys(3MeBn)-Pro-Pro-Thr-Glu-Phe-Cys]-Asp-His-Phe-Arg-Asp-Ttds-Lys(Bio)-NH2] (H-MCPPTEFCDHFRD-X6; linker 2-8 via mXylylene) |  | > 1000 nM | > 1000 nM |  | < 10 nM | < 10 nM | 
4 | CCCCCC(=O)N[C@H]1CSCc2cc(CSCCNC(=O)CN3CCN(CC(=O)O)CCN(CC(=O)O)CCN(CC(=O)O)CC3)cc(c2)CSC[C@@H](C(=O)N[C@@H](CC(=O)O)C(N)=O)NC(=O)[C@H](Cc2ccccc2)NC(=O)[C@H](CCC(N)=O)NC(=O)[C@H]([C@@H](C)O)NC(=O)[C@@H]2CCCN2C(=O)[C@@H]2CCCN2C1=O [3BP-3426, Hex-[Cys(tMeBn(DOTA-AET))-Pro-Pro-Thr-Gln-Phe-Cys]-Asp-NH2] (Hexanoyl-CPPTQFCD-NH2; linker 1-7 via TBMB(SCH2CH2NH-DOTA)) |  | > 1000 nM | > 1000 nM | < 10 nM | < 10 nM | < 10 nM | 73%
5 | CCCCCC(=O)N[C@H]1CSCc2cccc(c2)CSC[C@@H](C(=O)N[C@@H](CC(=O)O)C(=O)N[C@@H](Cc2c[nH]cn2)C(=O)N(C)[C@@H](Cc2ccccc2)C(=O)N[C@@H](CCCNC(=N)N)C(=O)NCCCOCCOCCOCCCNC(=O)CCC(=O)N[C@@H](CCCCNC(=O)CN2CCN(CC(=O)O)CCN(CC(=O)O)CCN(CC(=O)O)CC2)C(N)=O)NC(=O)[C@H](Cc2ccccc2)NC(=O)[C@H](CCC(=O)O)NC(=O)[C@H]([C@@H](C)O)NC(=O)[C@@H]2CCCN2C(=O)[C@@H]2CCCN2C1=O [3BP-3275, Hex-[Cys(3MeBn)-Pro-Pro-Thr-Glu-Phe-Cys]-Asp-His-Nmf-Arg-Ttds-Lys(DOTA)-NH2] (Hexanoyl-CPPTEFCDH[NMeF]R-X3; linker 1-7 via mXylylene) | 94% | > 1000 nM | > 1000 nM | < 10 nM | < 10 nM | < 10 nM | 
6 | CCCCCC(=O)N[C@H]1CSCc2cccc(c2)CSC[C@@H](C(N)=O)NC(=O)[C@H](Cc2ccccc2)NC(=O)[C@H](CCC(N)=O)NC(=O)[C@H]([C@@H](C)O)NC(=O)[C@@H]2CCCN2C(=O)[C@@H]2CCCN2C1=O [3BP-3349, Hex-[Cys(3MeBn)-Pro-Pro-Thr-Gln-Phe-Cys]-NH2] |  | > 1000 nM | > 1000 nM | < 10 nM | 10 to 79.4 nM | < 10 nM | 
7 | CCCC[C@H](NC(=O)CCC(=O)NCCCOCCOCCOCCCNC(=O)CN1CCN(CC(=O)O)CCN(CC(=O)O)CCN(CC(=O)O)CC1)C(=O)N[C@H]1CSCc2cccc(c2)CSC[C@@H](C(=O)NC(CC(=O)O)C(N)=O)NC(=O)[C@H](Cc2ccccc2)NC(=O)[C@H](CCC(=O)O)NC(=O)[C@H]([C@@H](C)O)NC(=O)[C@@H]2CCCN2C(=O)[C@@H]2CCCN2C1=O (stereo partly drawn) [3BP-3320, DOTA-Ttds-Nle-[Cys(3MeBn)-Pro-Pro-Thr-Glu-Phe-Cys]-Asp-NH2] ({X2-Suc}-[Nle]CPPTEFC[ξD]-NH2; linker 2-8 via mXylylene) | 75% | > 1000 nM | > 1000 nM | < 10 nM | 10 to 79.4 nM | < 10 nM | 
8 | CCCCCC(=O)N[C@H]1CSCc2cccc(c2)CSC[C@@H](C(=O)N[C@@H](CC(=O)O)C(N)=O)NC(=O)[C@H](Cc2ccccc2)NC(=O)[C@H](CCC(N)=O)NC(=O)[C@H]([C@@H](C)O)NC(=O)[C@@H]2CCCN2C(=O)[C@@H]2CCCN2C1=O [3BP-3476, Hex-[Cys(3MeBn)-Pro-Pro-Thr-Gln-Phe-Cys]-Asp-NH2] (Hexanoyl-CPPTQFCD-NH2; linker 1-7 via mXylylene) |  | > 1000 nM | > 1000 nM | < 10 nM | < 10 nM | < 10 nM | 
9 | CCCCCC(=O)N[C@H]1CSCc2cccc(c2)CSC[C@@H](C(N)=O)NC(=O)[C@H](Cc2ccccc2)NC(=O)[C@H](CCC(=O)O)NC(=O)[C@H]([C@@H](C)O)NC(=O)[C@@H]2CCCN2C(=O)[C@@H]2CCCN2C1=O [3BP-3287, Hex-[Cys(3MeBn)-Pro-Pro-Thr-Glu-Phe-Cys]-NH2] (Hexanoyl-CPPTEFC-NH2; linker 1-7 via mXylylene) |  | > 1000 nM | > 1000 nM |  | 100 to 794 nM | 10 to 79.4 nM | 
